Values quoted from earlier work, collected in patent publication US11260028B2, “Nanosome formulations of aprepitant and methods and applications thereof” (ForDoz Pharma Corp., priority 2017, dated 2022).

Compound: C[C@@H](O[C@H]1OCCN(Cc2n[nH]c(=O)[nH]2)[C@H]1c1ccc(F)cc1)c1cc(C(F)(F)F)cc(C(F)(F)F)c1 [aprepitant, 5-[[(2R,3S)-2-[(1R)-1-[3,5-bis(trifluoromethyl)phenyl]ethoxy]-3-(4-fluorophenyl)-4-morpholinyl]methyl]-1,2-dihydro-3H-1,2,4-triazol-3-one]
- water solubility: poor
